{"source": "patent US8507506B2", "about": "“Theophylline derivative inhibits osteoporosis” (Kaohsiung Medical University, priority 2011, dated 2013)", "format_in_all_cases": "cell-based", "key": {"[1]": {"test_system": "TRAP activity of RAW264.7 cells induced by RANKL", "assay": "TRAP activity assay", "details": "10 ng/ml RANKL for 5 days, 10 μM", "method": "10^3 cells were plated per well in 96-well plates. […] When the reaction fluid became yellow, 0.1 M, 100 μl/well NaOH was added to terminate the reaction, and OD405 was examined in 37° C. b) 3 μl/well supernatant was examined by Bio-Red DC Protein Assay to detect the protein concentration."}, "RAW264.7 cells [2]": {"test_system": "RAW264.7 cells", "assay": "MTT assay, proliferation induced by RANKL", "details": "RAW264.7, 10 μM", "method": "Cells were plated onto 96-well plates at a density of 10^3 cells per well. After 24 hours incubation, the different concentrations of the different drugs were administrated into the plates. […] Subsequently, the medium was removed, and 100 μl/well isopropanol was added to solved formazan. The plates were shaken for 15 minutes and stood for 15 minutes, and then the absorbance was measured at wavelength of 540 nm and 630 nm. The ratio of the absorbance of treated cells relative to that of the control cells was calculated and expressed as a percentage of cell survival."}, "RAW264.7 cells [3]": {"test_system": "RAW264.7 cells", "assay": "BrdU assay, proliferation induced by RANKL", "details": "RAW264.7, 10 μM", "method": "The BrdU assay was followed the instructions of Cell Proliferation ELISA BrdU kit. 10^3 cells were plated per well in 96-well plates. […] After washing in wash buffer for three times, 100 μl/well Substrate reaction was added and incubated for 30 minutes at room temperature."}}, "data": [{"smiles": "CCCc1nn(C)c2c(=O)[nH]c(-c3cc(S(=O)(=O)N4CCN(C)CC4)ccc3OCC)nc12", "note": "[sildenafil]", "values": [{"measurement": "TRAP activity induced by RANKL", "setting": "[1]", "result": "have no obviously inhibiting effect on TRAP activity induced by RANKL"}]}, {"smiles": "Cn1c(=O)c2[nH]cnc2n(C)c1=O", "note": "[theophylline]", "values": [{"measurement": "cell proliferation induced by RANKL (MTT assay)", "setting": "RAW264.7 cells [2]", "result": "have no previous inhibiting effect on cell proliferation induced by RANKL"}, {"measurement": "cell proliferation induced by RANKL (BrdU assay)", "setting": "RAW264.7 cells [3]", "result": "have no previous inhibiting effect on cell proliferation induced by RANKL"}, {"measurement": "TRAP activity induced by RANKL", "setting": "[1]", "result": "have no obviously inhibiting effect on TRAP activity induced by RANKL"}]}]}
